Structures can show the parent of a compound that is named as a salt.

This test concerns modified version of the GPR119 receptor (94% identity to human receptor). Nature of the test: cAMP production assay (LANCE cAMP kit, TR-FRET) in HEK-293 cells. The format is cell-based. To be noted: for cAMP production in HEK-293 cells: HEK-293 cells stably expressing modified GPR119, test compounds 0.2 nM to 10 μM, one-hour incubation at ambient temperature; for Fold over baseline: increase in cAMP relative to basal levels, agonist activity if 1.5-fold or greater. As for the experimental part: The assay utilized HEK-293 cells that stably express a modified version of the GPR119 receptor (94% identity to human receptor), under the control of a CMV promoter containing a tet-on element for tetracycline-inducible expression. GPR119 agonist-induced cyclic AMP (cAMP) production was measured in this cell line using the LANCE cAMP kit (Perkin Elmer, Waltham, Mass.). To generate a working stock of cells for the assay, cells were treated overnight with 1 μg/mL doxycycline at 37° C. in the presence of 5% CO2 to induce receptor expression. Cells were then harvested by enzymatic dissociation with 0.05% trypsin, resuspended in freezing medium (DMEM growth medium with 10% each of fetal bovine serum and DMSO), aliquoted and frozen at −80° C. On the day of the assay, frozen cells were thawed, washed 1× in PBS and resuspended in Hank's buffered salt solution (HBSS) containing 5 mM HEPES, 0.1% BSA and Alexa Fluor 647-conjugated anti-cAMP antibody (diluted 1:100). The cell suspension was then transferred to a Proxiplate Plus white 384-well assay plate (Perkin-Elmer) at 2000 cells/well. Test compounds at final concentrations ranging from 0.2 nM to 10 μM were added to the assay plate, followed by a one-hour incubation at ambient temperature (volume=10 μL/well). DMSO concentration was held constant at 0.5%. After incubation with test compounds, 10 μL of a detergent buffer containing a biotinylated cAMP/Europium-conjugated streptavidin complex (Europium-labeled cAMP tracer) were added to each well on the assay plate, followed by a 2-hour incubation at ambient temperature. During this incubation cAMP released from lysed cells competes with the Europium-labeled cAMP tracer for binding to the Alexa Fluor 647-conjugated antibody. […] Cellular cAMP levels were then determined by interpolation of raw signal data using a cAMP standard curve. Compounds were determined to have agonist activity if they stimulated a 1.5-fold or greater increase in cAMP relative to basal levels.

`CS(=O)(=O)c1ccc(N[C@H]2CCN(C3CCN(c4ncc(Cl)cn4)CC3)C2=O)c(F)c1` [Example 10, (S)-1-(1-(5-chloropyrimidin-2-yl)piperidin-4-yl)-3-(2-fluoro-4-(methylsulfonyl)phenylamino)pyrrolidin-2-one]: the “cAMP production in HEK-293 cells” value amounted to 6.5 nmol and the Fold over baseline turned out to be 2.1.

`CS(=O)(=O)c1cc(F)c(N[C@H]2CCN(C3CCN(c4cnc(C(F)(F)F)cn4)CC3)C2=O)cc1F` [Example 11, (S)-3-(2,5-difluoro-4-(methylsulfonyl)phenylamino)-1-(1-(5-(trifluoromethyl)pyrazin-2-yl)piperidin-4-yl)pyrrolidin-2-one]: the “cAMP production in HEK-293 cells” value amounted to 27.1 nmol and the Fold over baseline stood at 3.4.

On to `CS(=O)(=O)c1ccc(N[C@H]2CCN(C3CCN(c4cnc(Br)cn4)CC3)C2=O)c(F)c1` [Example 12, (S)-1-(1-(5-bromopyrazin-2-yl)piperidin-4-yl)-3-(2-fluoro-4-(methylsulfonyl)phenyl-amino)pyrrolidin-2-one], for which the “cAMP production in HEK-293 cells” value was 23.4 nmol and the Fold over baseline amounted to 3.8.

Turning to `CS(=O)(=O)c1ccc(N[C@H]2CCN(C3CCN(c4cnc(C(F)(F)F)cn4)CC3)C2=O)c(F)c1` [Example 13, (S)-3-(2-fluoro-4-(methylsulfonyl)phenylamino)-1-(1-(5-(trifluoromethyl)pyrazin-2-yl)piperidin-4-yl)pyrrolidin-2-one], the “cAMP production in HEK-293 cells” value was 24.8 nmol and the Fold over baseline turned out to be 4.4.

On to `CS(=O)(=O)c1ccc(N[C@H]2CCN(C3CCN(c4cnc(C#N)cn4)CC3)C2=O)c(F)c1` [Example 14, (S)-5-(4-(3-(2-fluoro-4-(methylsulfonyl)phenylamino)-2-oxopyrrolidin-1-yl)piperidin-1-yl)pyrazine-2-carbonitrile], for which the “cAMP production in HEK-293 cells” value came to 32.3 nmol and the Fold over baseline is recorded as 5.5.

As for `CS(=O)(=O)c1cc(F)c(N[C@H]2CCN(C3CCN(c4cnc(Br)cn4)CC3)C2=O)cc1F` [Example 15, (S)-1-(1-(5-bromopyrazin-2-yl)piperidin-4-yl)-3-(2,5-difluoro-4-(methylsulfonyl)phenylamino)pyrrolidin-2-one], the “cAMP production in HEK-293 cells” value was 24.2 nmol and the Fold over baseline is 4.2.

On to `CS(=O)(=O)c1cc(F)c(N[C@H]2CCN(C3CCN(c4cnc(C#N)cn4)CC3)C2=O)cc1F` [Example 16, (S)-5-(4-(3-(2,5-difluoro-4-(methylsulfonyl)phenylamino)-2-oxopyrrolidin-1-yl)piperidin-1-yl)pyrazine-2-carbonitrile], for which the “cAMP production in HEK-293 cells” value turned out to be 21.4 nmol and the Fold over baseline is listed as 4.0.

`CCS(=O)(=O)c1ccc(N[C@H]2CCN(C3CCN(c4cnc(Cl)cn4)CC3)C2=O)c(F)c1` [Example 17, (S)-1-(1-(5-chloropyrazin-2-yl)piperidin-4-yl)-3-(4-(ethylsulfonyl)-2-fluorophenylamino)pyrrolidin-2-one]: the “cAMP production in HEK-293 cells” value was found to be 107.3 nmol and the Fold over baseline is 5.3.

On to `CS(=O)(=O)c1ccc(N[C@H]2CCN(C3CCN(c4cncc(Cl)n4)CC3)C2=O)c(F)c1` [Example 18, (S)-1-(1-(6-chloropyrazin-2-yl)piperidin-4-yl)-3-(2-fluoro-4-(methylsulfonyl)phenylamino) pyrrolidin-2-one], for which the “cAMP production in HEK-293 cells” value was determined as 7.7 nmol and the Fold over baseline is 1.8.

For the molecule `CCc1cnc(N2CCC(N3CC[C@H](Nc4ccc(S(C)(=O)=O)cc4F)C3=O)CC2)nc1` [Example 19, (S)-1-(1-(5-ethylpyrimidin-2-yl)piperidin-4-yl)-3-(2-fluoro-4 (methylsulfonyl)phenylamino) pyrrolidin-2-one], the “cAMP production in HEK-293 cells” value came to 9.9 nmol and the Fold over baseline is on record as 2.1.

Consider `CS(=O)(=O)c1cc(F)c(N[C@H]2CCN(C3CCN(c4cnc(Cl)cn4)CC3)C2=O)c(F)c1` [Example 20, (S)-1-(1-(5-chloropyrazin-2-yl)piperidin-4-yl)-3-(2,6-difluoro-4-(methylsulfonyl)phenylamino) pyrrolidin-2-one], for which the “cAMP production in HEK-293 cells” value was 24.4 nmol and the Fold over baseline is 6.5.

As to `CCc1cnc(N2CCC(N3CC[C@H](Nc4c(F)cc(S(C)(=O)=O)cc4F)C3=O)CC2)nc1` [Example 21, (S)-3-(2,6-difluoro-4-(methylsulfonyl)phenylamino)-1-(1-(5-ethylpyrimidin-2-yl)piperidin-4-yl)pyrrolidin-2-one], the “cAMP production in HEK-293 cells” value came out at 6.6 nmol and the Fold over baseline was determined as 1.9.

Regarding `O=C1[C@@H](Nc2ncc(C(F)(F)F)cc2Cl)CCN1C1CCN(c2cnc(Cl)cn2)CC1` [Example 22, (S)-3-(3-chloro-5-(trifluoromethyl)pyridin-2-ylamino)-1-(1-(5-chloropyrazin-2-yl)piperidin-4-yl)pyrrolidin-2-one], the “cAMP production in HEK-293 cells” value was determined as 32.7 nmol and the Fold over baseline is 5.6.

With `O=C1[C@@H](Nc2ccc(C(F)(F)F)cn2)CCN1C1CCN(c2cnc(Cl)cn2)CC1` [Example 23, (S)-1-(1-(5-chloropyrazin-2-yl)piperidin-4-yl)-3-(5-(trifluoromethyl)pyridin-2-ylamino)pyrrolidin-2-one], the “cAMP production in HEK-293 cells” value is 13.6 nmol and the Fold over baseline was determined as 3.0.

Regarding `CCc1ccc(N2CCC(N3CCC(Nc4ccc(S(C)(=O)=O)cc4F)C3=O)CC2)nc1` (stereo not shown) [Example 24, 1-(1-(5-ethylpyridin-2-yl)piperidin-4-yl)-3-(2-fluoro-4-(methylsulfonyl)phenylamino)pyrrolidin-2-one], the “cAMP production in HEK-293 cells” value came to 24.8 nmol and the Fold over baseline is 2.9.

In the case of `CS(=O)(=O)c1ccc(NC2CCN(C3CCN(c4ccc(-c5ccccc5)cn4)CC3)C2=O)c(F)c1` (stereo not shown) [Example 25, 3-(2-fluoro-4-(methylsulfonyl)phenylamino)-1-(1-(5-phenylpyridin-2-yl)piperidin-4-yl)pyrrolidin-2-one], the “cAMP production in HEK-293 cells” value was determined as 11.6 nmol and the Fold over baseline was determined as 2.9.

On to `CCc1cnc(N2CCC(N3CCCC(Oc4cc(F)c(S(C)(=O)=O)cc4F)C3=O)CC2)nc1` (stereo not shown) [Example 26, 3-(2,5-difluoro-4-(methylsulfonyl)phenoxy)-1′-(5-ethylpyrimidin-2-yl)-1,4′-bipiperidin-2-one], for which the “cAMP production in HEK-293 cells” value was 19.1 nmol and the Fold over baseline worked out at 4.2.

In the case of `CCc1ccc(N2CCC(N3CC[C@H](Nc4ccc(S(C)(=O)=O)cc4F)C3=O)CC2)nc1` [Example 27A, (S)-1-(1-(5-Ethylpyridin-2-yl)piperidin-4-yl)-3-(2-fluoro-4-(methylsulfonyl)phenylamino)pyrrolidin-2-one], the “cAMP production in HEK-293 cells” value turned out to be 12.9 nmol and the Fold over baseline is 2.9.

Consider `CCc1ccc(N2CCC(N3CC[C@@H](Nc4ccc(S(C)(=O)=O)cc4F)C3=O)CC2)nc1` [Example 27B, (R)-1-(1-(5-ethylpyridin-2-yl)piperidin-4-yl)-3-(2-fluoro-4-(methylsulfonyl)phenylamino)pyrrolidin-2-one], for which the “cAMP production in HEK-293 cells” value came out at 7.5 nmol and the Fold over baseline is 2.2.

For the molecule `CCc1cnc(N2CCC(N3CCC(Nc4ccc(S(C)(=O)=O)cc4F)C3=O)CC2)c(C)c1` (stereo not shown) [Example 28, 1-(1-(5-ethyl-3-methylpyridin-2-yl)piperidin-4-yl)-3-(2-fluoro-4-(methylsulfonyl)phenylamino)pyrrolidin-2-one], the “cAMP production in HEK-293 cells” value was determined as 39.4 nmol and the Fold over baseline was 4.0.

With `CC(C)c1cnc(N2CCC(N3CC[C@H](Nc4ccc(S(C)(=O)=O)cc4F)C3=O)CC2)nc1` [Example 29, (S)-3-(2-fluoro-4-(methylsulfonyl)phenylamino)-1-(1-(5-isopropylpyrimidin-2-yl)piperidin-4-yl)pyrrolidin-2-one trifluoroacetate], the “cAMP production in HEK-293 cells” value stood at 11.5 nmol and the Fold over baseline was found to be 2.1.

As for `CSc1cnc(N2CCC(N3CC[C@H](Nc4ccc(S(C)(=O)=O)cc4F)C3=O)CC2)nc1` [Example 30, (S)-3-(2-fluoro-4-(methylsulfonyl)phenylamino)-1-(1-(5-(methylthio)pyrimidin-2-yl)piperidin-4-yl)pyrrolidin-2-one], the “cAMP production in HEK-293 cells” value is 6.6 nmol and the Fold over baseline worked out at 2.0.

Regarding `CS(=O)(=O)c1ccc(N[C@H]2CCN(C3CCN(c4ncc(-c5cn[nH]c5)cn4)CC3)C2=O)c(F)c1` [Example 31, (S)-1-(1-(5-(1H-pyrazol-4-yl)pyrimidin-2-yl)piperidin-4-yl)-3-(2-fluoro-4-(methylsulfonyl)phenylamino)pyrrolidin-2-one], the “cAMP production in HEK-293 cells” value was 14.5 nmol and the Fold over baseline was determined as 2.9.

These data come from patent US8754226B2, “Piperidinyl-substituted lactams as GPR119 modulators” (Array BioPharma Inc., priority 2010, dated 2014).
